Earlier results on four compounds are cited in patent US20090078254A1, “Anesthetic Agent Recovery” (priority 2004, published 2009).

Molecules are shown by their SMILES. Like-named read-outs stand apart in the source and are kept apart here.

Test in series [1]: not given
The source holds these as a separate data set.

In series [2] the test system is population moving in response to pain. Conditions: for MAC (Minimum Alveolar Concentration of gas that prevents 50% of population from moving in response to pain): adding 50% MAC N2O drops MAC value of agent by 50%.
The conditions of series [3]: in vitro and in vivo studies.
Test in series [4]: not given
This is another data set of the same source.

For series [5] the following is noted: produces inorganic fluoride.

As to `FC(F)OC(Cl)C(F)(F)F` (stereo not drawn) [ISOFLURANE], the “Stability In Moist Soda Lime” value (40° C.) is “Stable”. Where the note is “60° C.”, the “Stability In Moist Soda Lime” value is “Stable”. The “Stability In Moist Soda Lime” value (80° C.) is on record as “Stable”. Also, in series [1], the “SVP@18° C.” value is 219 mm Hg, the “SVP@20° C.” value was 240 mm Hg, the “SVP@22° C.” value is on record as 262 mm Hg and the “SVP@24° C.” value is 286 mm Hg. Moreover, the “SVP@26° C.” value in series [1] is given as 312 mm Hg. Further, in series [2], the “MAC (Minimum Alveolar Concentration of gas that prevents 50% of population from moving in response to pain)” value was 1-1.6%.

In the case of `FC(F)OC(F)C(F)(F)F` (stereo not drawn) [DESFLURANE], the “Stability In Moist Soda Lime” value (40° C.) is reported as “Stable”. Moreover, the “Stability In Moist Soda Lime” value (60° C.) is “Stable”. The “Stability In Moist Soda Lime” value (80° C.) is “Sl. Unstable”. Moreover, the Compound stability entry in series [3] is listed as “extremely stable”. Moreover, in series [1], the “SVP@18° C.” value is on record as 653 mm Hg, the “SVP@20° C.” value is listed as 700 mm Hg, the “SVP@22° C.” value is recorded as 750 mm Hg and the “SVP@24° C.” value is 804 mm Hg. The “SVP@26° C.” value in series [1] is reported as 860 mm Hg. Also, the saturated vapor pressure in series [1] (room temperature) is ~1.0 atm. In addition, the “MAC (Minimum Alveolar Concentration of gas that prevents 50% of population from moving in response to pain)” value in series [2] is on record as 5-8%. In addition, the “Potency relative to ISOFLURANE” value in series [2] (fraction of isoflurane potency) is recorded as “about ⅕”.

Turning to `FC(F)(F)C(Cl)Br` (stereo not drawn) [HALOTHANE], in series [4] (byproducts of reductive metabolism), the Liver damage result is reported as “can cause liver damage”. Also, the Malignant hyperthermia result in series [4] (in vivo) is “potential to cause malignant hyperthermia”.

Turning to `FCOC(C(F)(F)F)C(F)(F)F` [SEVOFLURANE], the “Stability In Moist Soda Lime” value (40° C.) is “Unstable”, the “Stability In Moist Soda Lime” value (60° C.) was “Unstable” and the “Stability In Moist Soda Lime” value (80° C.) is recorded as “Unstable”. In addition, the “Stability in the presence of standard CO2 absorbents” value (soda lime, baralime) was “unstable”. In addition, the metabolism in series [5] is on record as 5%. For the same compound, in series [1], the “SVP@20° C.” value is 157 mm Hg. Also, in series [2], the “MAC (Minimum Alveolar Concentration of gas that prevents 50% of population from moving in response to pain)” value is 1.5-2.5%.
